The target of experiment [1] is T1, 5-hydroxytryptamine receptor 1A (Homo sapiens, UniProt P08908).
T1 sequence (P08908 whole entry): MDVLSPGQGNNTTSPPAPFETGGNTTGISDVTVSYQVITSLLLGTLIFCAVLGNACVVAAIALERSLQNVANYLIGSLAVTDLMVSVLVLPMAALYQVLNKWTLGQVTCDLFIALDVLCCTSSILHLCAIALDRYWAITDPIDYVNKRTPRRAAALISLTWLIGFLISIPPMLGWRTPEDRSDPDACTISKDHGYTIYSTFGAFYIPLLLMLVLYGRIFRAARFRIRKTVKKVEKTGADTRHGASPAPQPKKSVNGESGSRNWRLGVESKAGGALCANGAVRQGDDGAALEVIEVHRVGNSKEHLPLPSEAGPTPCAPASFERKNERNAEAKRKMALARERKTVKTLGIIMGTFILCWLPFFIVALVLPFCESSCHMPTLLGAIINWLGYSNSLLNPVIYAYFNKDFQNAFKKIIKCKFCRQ
Description: Stimulation of [35S]- GIPyS binding to cloned human 5-hydroxytryptamine 1A receptor stably expressed in HeLa cells. The format is cell-based.

The target of experiment [2] is T2, 5-hydroxytryptamine receptor 1A (Homo sapiens) (UniProt P08908).
T2 sequence (whole entry): T1 sequence (P08908 whole entry)
The experiment is described as follows: Percent efficacy against human 5-hydroxytryptamine 1A receptor relative to maximal 5-HT response. In kind it is functional.

Experiment [3] deals with T1, 5-hydroxytryptamine receptor 1A. Description: Displacement of specific [3H]- 5-HT binding to cloned human 5-hydroxytryptamine 1A receptor stably expressed in HeLa cells. The format is cell-based.
For experiment [4], the target named is Sodium-dependent serotonin transporter (Rattus norvegicus, UniProt P31652). The experiment is described as follows: Displacement of specific [3H]- citalopram binding to 5-HT uptake site in rat whole cortex.
Experiment [5] addresses T2, 5-hydroxytryptamine receptor 1A (Homo sapiens). The experiment is described as follows: Percent efficacy against cloned human 5-hydroxytryptamine 1A receptor normalized to the maximal 5-HT response. The format is functional.
The target of experiment [6] is T1, 5-hydroxytryptamine receptor 1A. Description: Stimulation of [35S]- […] binding to cloned human 5-hydroxytryptamine 1A receptor stably expressed in HeLa cells; Inverse. In kind it is cell-based.

Sequence of Sodium-dependent serotonin transporter (P31652 whole entry): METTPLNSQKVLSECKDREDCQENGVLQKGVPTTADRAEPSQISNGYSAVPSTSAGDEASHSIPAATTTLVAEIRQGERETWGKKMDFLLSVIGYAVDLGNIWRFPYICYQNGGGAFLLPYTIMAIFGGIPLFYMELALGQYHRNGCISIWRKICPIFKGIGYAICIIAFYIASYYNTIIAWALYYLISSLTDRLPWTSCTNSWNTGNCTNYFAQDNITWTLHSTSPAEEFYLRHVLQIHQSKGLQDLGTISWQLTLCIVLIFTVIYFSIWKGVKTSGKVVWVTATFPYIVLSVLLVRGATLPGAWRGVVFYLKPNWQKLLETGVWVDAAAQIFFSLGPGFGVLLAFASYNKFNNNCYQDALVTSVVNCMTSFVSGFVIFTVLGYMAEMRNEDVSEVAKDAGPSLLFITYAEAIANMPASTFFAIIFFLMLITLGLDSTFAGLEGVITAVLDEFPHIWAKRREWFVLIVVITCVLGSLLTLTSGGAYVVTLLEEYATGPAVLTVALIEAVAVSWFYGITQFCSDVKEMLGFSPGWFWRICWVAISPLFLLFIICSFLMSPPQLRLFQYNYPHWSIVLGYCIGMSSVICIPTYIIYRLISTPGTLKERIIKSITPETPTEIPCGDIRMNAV

What is called EC50 is the midpoint of the concentration-response curve. Read a high EC50 as a need for much substance. One may read the Ki as a measure of affinity in units of concentration, obtained from inhibition or displacement. The low end stands for tighter binding, the high end for weaker binding. On to `O[C@H](COc1ccccc1F)CN1CCC2(CC1)OCc1c2ccc2ccccc12`, for which, in experiment [1], a half-maximal effect (EC50) was put at 1.1 nM. This molecule yielded an Efficacy in experiment [2] of 100%. Besides, the Ki in experiment [3] amounted to 1 nM; in experiment [4] it was 52 nM.
`OC(CCc1ccccc1)CN1CCC2(CC1)OCc1c2ccc2ccccc12` (stereo not drawn) registered an EC50 in experiment [1] of 37 nM. The molecule also registered an Efficacy in experiment [2] of 87%. Besides, the values for the Ki in experiment [3] and in experiment [4] were 8.3 nM and 10 nM, respectively.
As for `OC(COCc1ccccc1)CN1CCC2(CC1)OCc1c2ccc2ccccc12` (stereo not drawn), the EC50 in experiment [1] was found to be 31 nM. The Efficacy in experiment [2] is 108%. Moreover, the Ki worked out at 2.2 nM in experiment [3] and 83 nM in experiment [4].
With `O=C1CCc2c(F)ccc(OCC(O)CN3CCC4(CC3)OCc3c4ccc4ccccc34)c21` (stereo not drawn), in experiment [1], it took 3.5 nM to reach a half-maximal effect (EC50). The molecule further gave an Efficacy in experiment [5] of 65%. Moreover, the results for the Ki in experiment [3] and in experiment [4] were 2.3 nM and 45 nM, respectively.
The molecule `c1ccc(CCCCN2CCC3(CC2)OCc2c3ccc3ccccc23)cc1` had an EC50 in experiment [1] of more than 10000 nM. For the same molecule, the Ki in experiment [3] was found to be 72 nM; in experiment [4] it was 28 nM.
Turning to `O[C@@H](COc1ccccc1F)CN1CCC2(CC1)OCc1c2ccc2ccccc12`, the EC50 in experiment [1] was 21 nM. In experiment [2], this molecule gave an Efficacy of 92%. Besides, the Ki is 6 nM in experiment [3] and 120 nM in experiment [4].
With `O[C@H](COc1ccccc1)CN1CCC2(CC1)OCc1c2ccc2ccccc12`, in experiment [1], the midpoint of the response, the EC50, lay at 1.2 nM. In experiment [2], the Efficacy was 81%. Besides, the Ki in experiment [3] came out at 1.1 nM; in experiment [4], 50 nM.
As for `OC(COc1cc(F)cc2c1OCCC2)CN1CCC2(CC1)OCc1c2ccc2ccccc12` (stereo not drawn), in experiment [6], the EC50 entry is reported as “Inverse agonist”. Further, the values for the inhibitory constant (Ki) in experiment [3] and in experiment [4] were 5.5 nM and 72 nM, respectively.
The molecule `OC(COc1ccc(F)c2c1OCCC2)CN1CCC2(CC1)OCc1c2ccc2ccccc12` (stereo not drawn) registered an EC50 in experiment [1] of more than 10000 nM. Moreover, the results for the Ki in experiment [3] and in experiment [4] were 2.8 nM and 49 nM, respectively.
Turning to `CC(C)NCC(O)COc1cccc2[nH]ccc12` (stereo not drawn), the Efficacy in experiment [2] was determined as 36%.
`CCc1cccc(OC[C@@H](O)CN2CCC3(CC2)OCc2c3ccc3ccccc23)c1`: in experiment [1], it took 3.3 nM to reach a half-maximal effect (EC50). In experiment [2], this molecule had an Efficacy of 61%. In addition, the Ki in experiment [3] was 1.7 nM; in experiment [4], 87 nM.
